Measurements from the supplement of paper PMC6045584.
± gives the standard deviation of the averaged measurements.

Legend:
[1] = compound: CCc1cc(Nc2nccc(-c3c(-c4ccc(OC)c(C(=O)Nc5c(F)cccc5F)c4)nc4ccccn34)n2)c(OC)cc1N1CCC(N2CCN(S(C)(=O)=O)CC2)CC1; assay: surviving fraction relative to DMSO-only wells; higher = less growth inhibition; conditions: exposure time: 5 days
How it was run: (§1)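 Inhibitors at 0.5, 1, 5, 10, 50, 100, 500 and 1000 nM were applied continuously for five days to tumour cell lines seeded in log phase at 250–500 cells per well in 384-well plates 24 hours earlier. Viability was measured by CellTiter-Glo luminescence and expressed as surviving fraction relative to the median of DMSO-only wells. Luminescence was taken after 10 minutes at room temperature.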

[2] = compound: C=CCn1c(=O)c2cnc(Nc3ccc(N4CCN(C)CC4)cc3)nc2n1-c1cccc(C(C)(C)O)n1 [MK-1775]; assay: as above; conditions: exposure time: 5 days
How it was run: as §1

| Test System | surviving fraction ([1]; 0.5 nM) | surviving fraction ([1]; 1 nM) | surviving fraction ([1]; 5 nM) | surviving fraction ([1]; 10 nM) | surviving fraction ([1]; 50 nM) | surviving fraction ([1]; 100 nM) | surviving fraction ([1]; 500 nM) | surviving fraction ([1]; 1000 nM) | surviving fraction ([2]; 0.5 nM) | surviving fraction ([2]; 1 nM) | surviving fraction ([2]; 5 nM) | surviving fraction ([2]; 10 nM) | surviving fraction ([2]; 50 nM) | surviving fraction ([2]; 100 nM) | surviving fraction ([2]; 500 nM) | surviving fraction ([2]; 1000 nM) |
| --- | --- | --- | --- | --- | --- | --- | --- | --- | --- | --- | --- | --- | --- | --- | --- | --- |
| 22RV1 PROSTATE | 1 ± 0.014 | 1.02 ± 0.023 | 0.989 ± 0.014 | 0.953 ± 0.026 | 1.01 ± 0.024 | 0.991 ± 0.057 | 0.989 ± 0.033 | 0.946 ± 0.042 | 1.01 ± 0.03 | 1.01 ± 0.066 | 0.972 ± 0.051 | 1 ± 0.021 | 1.03 ± 0.033 | 0.877 ± 0.083 | 0.608 ± 0.028 | 0.263 ± 0.039 |
| 93VU HEADNECK | 1.03 ± 0.062 | 1.09 ± 0.15 | 1.1 ± 0.21 | 1.12 ± 0.063 | 1.11 ± 0.033 | 1.05 ± 0.089 | 0.932 ± 0.051 | 0.936 ± 0.094 | 1.05 ± 0.098 | 0.996 ± 0.034 | 1.13 ± 0.1 | 1.01 ± 0.033 | 0.649 ± 0.063 | 0.416 ± 0.038 | 0.22 ± 0.021 | 0.165 ± 0.029 |
| 143B BONE | 0.985 ± 0.033 | 0.959 ± 0.086 | 0.928 ± 0.13 | 1.03 ± 0.031 | 0.9995 ± 0.0035 | 0.996 ± 0.052 | 0.999 ± 0.0042 | 0.959 ± 0.023 | 0.998 ± 0.0057 | 1.01 ± 0.033 | 1.02 ± 0.045 | 1.02 ± 0.0028 | 1.025 ± 0.0057 | 0.993 ± 0.013 | 0.111 ± 0.011 | 0.067 ± 0.0042 |
| A549 LUNG | 0.954 ± 0.022 | 0.994 ± 0.045 | 0.995 ± 0.032 | 1.02 ± 0.033 | 0.983 ± 0.029 | 1.04 ± 0.036 | 1.01 ± 0.042 | 1.01 ± 0.034 | 1.02 ± 0.051 | 0.985 ± 0.059 | 0.995 ± 0.057 | 0.998 ± 0.032 | 1.05 ± 0.037 | 1.08 ± 0.047 | 0.816 ± 0.02 | 0.38 ± 0.011 |
| ASKA SYNOVIAL | 1.16 ± 0.063 | 1.17 ± 0.057 | 1.27 ± 0.088 | 1.16 ± 0.1 | 1.19 ± 0.017 | 1.2 ± 0.03 | 1.18 ± 0.03 | 1.04 ± 0.094 | 0.946 ± 0.032 | 1.02 ± 0.1 | 1.1 ± 0.03 | 1.02 ± 0.023 | 0.405 ± 0.0092 | 0.406 ± 0.012 | 0.295 ± 0.019 | 0.37 ± 0.015 |
| BT20 BREAST | 1.06 ± 0.11 | 1.01 ± 0.086 | 1.09 ± 0.018 | 1.13 ± 0.14 | 0.932 ± 0.068 | 0.941 ± 0.036 | 0.825 ± 0.074 | 0.707 ± 0.029 | 1.12 ± 0.23 | 1.05 ± 0.19 | 1.06 ± 0.17 | 1.04 ± 0.21 | 1.09 ± 0.3 | 0.972 ± 0.21 | 0.162 ± 0.02 | 0.0827 ± 0.021 |
| BT549 BREAST | 1.03 ± 0.098 | 1.06 ± 0.033 | 1.14 ± 0.097 | 1.13 ± 0.082 | 1.07 ± 0.1 | 1.12 ± 0.1 | 1.08 ± 0.074 | 0.852 ± 0.019 | 1.15 ± 0.1 | 1.11 ± 0.13 | 1.09 ± 0.089 | 1.04 ± 0.089 | 0.783 ± 0.038 | 0.427 ± 0.011 | 0.0453 ± 0.0057 | 0.0453 ± 0.0032 |
| C33A CERVIX | 0.755 ± 0.047 | 0.874 ± 0.086 | 1 ± 0.057 | 0.892 ± 0.11 | 1.01 ± 0.11 | 0.952 ± 0.031 | 0.832 ± 0.062 | 0.793 ± 0.051 | 0.908 ± 0.063 | 0.986 ± 0.15 | 1 ± 0.053 | 0.962 ± 0.11 | 0.895 ± 0.073 | 0.491 ± 0.025 | 0.043 ± 0.02 | 0.0347 ± 0.0064 |
| CADOES1 SOFT TISSUE | 0.983 ± 0.048 | 0.983 ± 0.065 | 0.892 ± 0.12 | 0.885 ± 0.04 | 0.87 ± 0.1 | 1.05 ± 0.12 | 1.06 ± 0.12 | 1.08 ± 0.042 | 0.978 ± 0.014 | 0.929 ± 0.11 | 0.95 ± 0.036 | 0.887 ± 0.049 | 0.92 ± 0.094 | 0.832 ± 0.065 | 0.444 ± 0.034 | 0.218 ± 0.017 |
| CAL51 BREAST | 0.995 ± 0.06 | 1 ± 0.025 | 0.998 ± 0.029 | 1.03 ± 0.068 | 1.02 ± 0.017 | 1.04 ± 0.05 | 1.03 ± 0.043 | 1.03 ± 0.042 | 0.966 ± 0.047 | 0.9993 ± 0.0062 | 1.01 ± 0.016 | 0.994 ± 0.044 | 0.853 ± 0.012 | 0.48 ± 0.031 | 0.0318 ± 0.0013 | 0.0317 ± 0.0026 |
| CAL72 BONE | 1.06 ± 0.033 | 1.02 ± 0.026 | 1.03 ± 0.017 | 1.05 ± 0.025 | 1.08 ± 0.035 | 1.12 ± 0.032 | 1.13 ± 0.029 | 1.13 ± 0.033 | 1.06 ± 0.019 | 1.08 ± 0.041 | 1.07 ± 0.047 | 1.05 ± 0.023 | 1.11 ± 0.041 | 0.959 ± 0.018 | 0.123 ± 0.0076 | 0.109 ± 0.0067 |
| CAL120 BREAST | 0.944 ± 0.013 | 0.9663 ± 0.0055 | 0.968 ± 0.013 | 0.976 ± 0.032 | 0.976 ± 0.032 | 0.977 ± 0.024 | 0.944 ± 0.031 | 0.945 ± 0.021 | 0.9598 ± 0.0037 | 0.944 ± 0.011 | 0.985 ± 0.026 | 0.9663 ± 0.0029 | 0.902 ± 0.016 | 0.783 ± 0.027 | 0.2 ± 0.015 | 0.12 ± 0.018 |
| CASKI CERVIX | 0.937 ± 0.051 | 0.949 ± 0.055 | 0.97 ± 0.048 | 0.979 ± 0.04 | 0.946 ± 0.015 | 1.01 ± 0.043 | 0.967 ± 0.07 | 0.88 ± 0.039 | 0.887 ± 0.032 | 0.916 ± 0.071 | 0.99 ± 0.044 | 0.919 ± 0.049 | 0.479 ± 0.022 | 0.187 ± 0.012 | 0.0533 ± 0.0051 | 0.0453 ± 0.0068 |
| CHLA90 AUTONOMIC GANGLIA | 0.955 ± 0.039 | 1 ± 0.011 | 0.969 ± 0.054 | 0.932 ± 0.028 | 0.9353 ± 0.0021 | 0.94 ± 0.05 | 0.986 ± 0.031 | 0.952 ± 0.055 | 1.03 ± 0.051 | 1.06 ± 0.073 | 0.981 ± 0.023 | 0.963 ± 0.024 | 0.791 ± 0.011 | 0.681 ± 0.036 | 0.0927 ± 0.0067 | 0.076 ± 0.013 |
| CME SYNOVIAL | 1.4 ± 0.11 | 1.39 ± 0.21 | 1.39 ± 0.19 | 1.23 ± 0.05 | 1.36 ± 0.22 | 1.31 ± 0.089 | 0.913 ± 0.11 | 0.507 ± 0.034 | 1.36 ± 0.27 | 1.31 ± 0.096 | 1.5 ± 0.11 | 1.24 ± 0.13 | 1.45 ± 0.094 | 1.4 ± 0.11 | 1.3 ± 0.18 | 0.385 ± 0.025 |
| COLO320DM LARGE INTESTINE | 1.08 ± 0.04 | 1.18 ± 0.11 | 1.17 ± 0.06 | 1.19 ± 0.071 | 1.19 ± 0.09 | 1.14 ± 0.095 | 1.11 ± 0.061 | 0.892 ± 0.041 | 1.09 ± 0.063 | 1.1 ± 0.12 | 1.08 ± 0.12 | 1.12 ± 0.033 | 0.834 ± 0.054 | 0.592 ± 0.16 | 0.139 ± 0.011 | 0.131 ± 0.014 |
| DU4475 BREAST | 0.866 ± 0.12 | 0.937 ± 0.041 | 0.819 ± 0.072 | 1 ± 0.06 | 0.977 ± 0.28 | 0.832 ± 0.27 | 1.11 ± 0.34 | 1.19 ± 0.24 | 1.1 ± 0.26 | 1.15 ± 0.088 | 1.01 ± 0.068 | 0.889 ± 0.059 | 0.686 ± 0.28 | 0.554 ± 0.23 | 0.102 ± 0.034 | 0.037 ± 0.0056 |
| H23 LUNG | 0.939 ± 0.042 | 1.02 ± 0.032 | 0.973 ± 0.012 | 1.06 ± 0.078 | 0.997 ± 0.014 | 1.02 ± 0.038 | 1.02 ± 0.029 | 1 ± 0.032 | 1.04 ± 0.018 | 1.02 ± 0.041 | 1.04 ± 0.06 | 1.03 ± 0.1 | 0.86 ± 0.054 | 0.632 ± 0.045 | 0.285 ± 0.023 | 0.209 ± 0.034 |
| HCC78 LUNG | 0.893 ± 0.21 | 0.819 ± 0.18 | 0.91 ± 0.14 | 0.859 ± 0.05 | 0.899 ± 0.32 | 0.864 ± 0.051 | 0.653 ± 0.19 | 0.657 ± 0.14 | 0.883 ± 0.12 | 0.875 ± 0.14 | 1.07 ± 0.32 | 1.02 ± 0.13 | 0.827 ± 0.15 | 0.839 ± 0.08 | 0.105 ± 0.022 | 0.0803 ± 0.02 |
| HCC202 BREAST | 1.11 ± 0.32 | 1.27 ± 0.15 | 1.21 ± 0.21 | 1.14 ± 0.17 | 1.4 ± 0.18 | 1.25 ± 0.13 | 1.14 ± 0.15 | 1.18 ± 0.05 | 1.137 ± 0.0059 | 1.13 ± 0.2 | 1.01 ± 0.21 | 0.991 ± 0.061 | 0.908 ± 0.17 | 0.712 ± 0.22 | 0.347 ± 0.08 | 0.361 ± 0.075 |
